Data taken from the NIST ThermoML archive (doi:10.1021/je020053r).
Numbers after ± are expanded uncertainties.

What was measured:
[1] = 293.15 K; 101.33 kPa; Liquid
[2] = refractive index (Na D-line) (dimensionless); conditions: 293.15 K; 101.33 kPa; Liquid; Standard Abbe refractometry

| refractive index [2] | Structure (SMILES) | mass density [1] |
| --- | --- | --- |
|  | O=Cc1ccco1 [2-furaldehyde] | 1128.5 ± 15 kg/m3 |
|  | CCCCCC [hexane] | 659.3 ± 5 kg/m3 |
| 1.333 ± 0.0007 | O [water] |  |
